# Source: publication PMC7873251, “CXCR7 ameliorates myocardial infarction as a β-arrestin-biased receptor” (Scientific Reports, 2021)
# “Also recorded” adds a separate entry of the source.
# Legend:
# [1] = molecular target: T1, human CXCR7 (Homo sapiens, UniProt P25106); assay: β-arrestin recruitment assay of CXCR7 (luminescence, HEK293); assay type: cell-based; conditions: HEK293 cells transfected with human β-arrestin-2-ω and human CXCR7-α, 37 °C for 90 min, then Gal-Screen 25 °C 90 min, n = 3 independent, read-out: EC50 for coupling of CXCR7 with β-arrestin (β-arrestin recruitment)
# T1 construct: expressed in transfected cells; host or cells: HEK293 cells (ATCC CRL-11268)
# T1 sequence (P25106 whole entry): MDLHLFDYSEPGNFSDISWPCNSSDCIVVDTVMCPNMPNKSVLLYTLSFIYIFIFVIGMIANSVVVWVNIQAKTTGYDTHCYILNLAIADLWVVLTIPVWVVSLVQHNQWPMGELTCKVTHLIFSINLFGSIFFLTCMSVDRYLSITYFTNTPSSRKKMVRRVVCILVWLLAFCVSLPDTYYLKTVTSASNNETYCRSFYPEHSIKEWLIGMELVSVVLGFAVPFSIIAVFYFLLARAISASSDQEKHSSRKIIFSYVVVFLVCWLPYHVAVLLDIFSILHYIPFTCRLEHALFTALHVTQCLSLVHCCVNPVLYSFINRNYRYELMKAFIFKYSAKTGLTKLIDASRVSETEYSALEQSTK
# T1 sequence (P32121 whole entry partner): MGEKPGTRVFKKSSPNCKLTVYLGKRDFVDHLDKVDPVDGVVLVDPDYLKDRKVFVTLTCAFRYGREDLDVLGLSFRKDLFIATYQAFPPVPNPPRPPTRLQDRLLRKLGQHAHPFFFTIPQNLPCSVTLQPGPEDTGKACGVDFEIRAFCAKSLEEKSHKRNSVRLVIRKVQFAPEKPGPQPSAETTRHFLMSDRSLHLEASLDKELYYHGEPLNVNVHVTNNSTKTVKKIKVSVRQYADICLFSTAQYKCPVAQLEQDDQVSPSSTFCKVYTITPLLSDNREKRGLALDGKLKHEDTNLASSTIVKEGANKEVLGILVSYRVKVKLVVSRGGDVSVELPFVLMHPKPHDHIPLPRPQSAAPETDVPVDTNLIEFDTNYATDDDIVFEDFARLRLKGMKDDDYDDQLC
# Description: HEK293 cells (ATCC CRL-11268) were used for the β-arrestin recruitment assay, as previously described[52]. In brief, HEK293 cells were transfected with human β-arrestin-2-ω and human CXCR7-α. […] Luminescence was measured in an ARVO X3 plate reader (PerkinElmer, Waltham, MA, USA).
# [2] = system: ERK; assay: ERK phosphorylation (pERK/tERK immunoblot) in neonatal rat cardiomyocytes (NRCMs); assay type: cell-based, rat (Wistar); conditions: 30-min pretreatment with barbadin (50 M [sic]), then 10 min TC14012 (printed 3 M), n = 4
# Description: NRCMs and neonatal rat fibroblasts were prepared from 1-day-old Wistar rats (Takasugi Experimental Animal Supply Co., Saitama, Japan), as previously described. Briefly, cardiac cells were dispersed by digestion with collagenase type II (Worthington Biochemical, Lakewood, NJ, USA) and incubated at 37 °C for 80 min to divide the supernatant cells, which are rich in cardiomyocytes, and the attached cells, which are rich in cardiac fibroblasts. The supernatant NRCMs were cultured on gelatin-coated dishes at 37 °C in Dulbecco’s modified Eagle’s medium (DMEM; Nacalai Tesque, Kyoto, Japan) supplemented with 10% fetal calf serum for 36 h and confirmed on the basis of beating activity. After 12 h of starvation, the NRCMs were treated with TC14012 (Tocris Bioscience, Bristol, UK). Attached cells rich in cardiac fibroblasts were subcultured three times to increase their purity. We added vehicle (DMSO) or barbadin (MedChemExpress, New Jersey, USA) 30 min before stimulation.
# Western blotting was performed as previously described. […] Signals were detected with the Pierce ECL Prime system (GE Healthcare) in a LAS4000 instrument (GE Healthcare). Band densities were analyzed using the ImageJ software (National Institutes of Health, Bethesda, MD, USA).
# [3] = system: adrenergic receptors; conditions: cited from earlier work
# Excerpt: (§1) There are many seven-transmembrane receptors (7TMRs), such as adrenergic receptors and angiotensin II receptors, in the heart, and they play various critical roles in cardiac function and morphology[1],[2]. […] The roles of ACKRs are largely unknown, and only ACKR3, also known as CXC chemokine receptor 7 (CXCR7), has be ...
# [4] = system: heart failure patients; conditions: cited from earlier work
# Excerpt: as §1
# [5] = system: CC chemokine receptor 2-positive macrophages; conditions: pressure-overload heart failure model; cited from earlier work
# Excerpt: (§2) Recently, the importance of chemokines and their receptors in cardiovascular diseases has been pointed out.
# [6] = system: ERK (via rat CXCR7 expression plasmid); assay: ERK phosphorylation (pERK/tERK immunoblot) in CXCR7-transfected HEK293 cells; assay type: cell-based, HEK293 cells (human embryonic kidney); conditions: CXCL12 100 nM
# Description: HEK293 cells (ATCC CRL-11268) were used for the β-arrestin recruitment assay, as previously described. In brief, HEK293 cells were transfected with human β-arrestin-2-ω and human CXCR7-α. […] Luminescence was measured in an ARVO X3 plate reader (PerkinElmer, Waltham, MA, USA). In addition, HEK293 cells were transfected with a rat CXCR7 expression plasmid using Lipofectamine 3000 (Thermo Fisher Scientific). The CXCR7 expression plasmid was synthesized by amplifying a rat Cxcr7 mRNA sequence (RefSeq: NM_053352.1) with a FLAG tag (forward primer: 5′-[…]-3′, reverse primer: 5′-[…]-3′) from cDNA prepared from total RNA isolated from neonatal rat heart and inserting it in pShuttle-CMV (#16403, Addgene, Watertown, MA, USA). The cells were cultured for 36 h.
# Western blotting was performed as previously described. Tissues and cells were homogenized in ice-cold RIPA buffer containing protease inhibitor (cOmplete Protease Inhibitor Cocktail, Merck) and phosphatase inhibitor (PhosSTOP, Sigma). Supernatants were collected after centrifugation and mixed with an equal amount of loading buffer (125 mM Tris–HCl pH 6.8, 30% glycerol, 10% SDS, and 0.6 M DTT). […] Signals were detected with the Pierce ECL Prime system (GE Healthcare) in a LAS4000 instrument (GE Healthcare). Band densities were analyzed using the ImageJ software (National Institutes of Health, Bethesda, MD, USA).
# [7] = system: CXCR4; conditions: via CXCR4; cited from earlier work
# Excerpt: as §2
# [8] = system: type 1 angiotensin II receptor; conditions: cited from earlier work
# Excerpt: There are many seven-transmembrane receptors (7TMRs), such as adrenergic receptors and angiotensin II receptors, in the heart, and they play various critical roles in cardiac function and morphology[1],[2]. […] The roles of ACKRs are largely unknown, and only ACKR3, also known as CXC chemokine receptor 7 (CXCR7), has be ... || There are numerous reports on biased agonists. Biased agonism occurs when two ligands share one receptor, but transmit different signals. […] However, there are a few natural β-arrestin-biased agonists and very few 7TMRs that activate intracellular signaling only through β-arr ...
# [9] = system: cardiac hypertrophy; conditions: cited from earlier work
# Excerpt: There are numerous reports on biased agonists. Biased agonism occurs when two ligands share one receptor, but transmit different signals. […] However, there are a few natural β-arrestin-biased agonists and very few 7TMRs that activate intracellular signaling only through β-arr ...
# [10] = system: CC chemokine receptor-like 2 (CCRL2); conditions: cited from earlier work
# Excerpt: In this study, we focused on CXCR7 because of its abundant expression in the heart and its unique character as a 7TMR. […] As a 7TMR, the β1-adrenergic receptor plays critical roles in the heart[21],[22]; however, its expression level was tenfold lower than that of Cxcr7.
compound,measurement,setting,value
N=C(N)NCCC[C@H](NC(=O)[C@@H]1CSSC[C@H](NC(=O)[C@H](Cc2ccc3ccccc3c2)NC(=O)[C@H](CCCNC(=N)N)NC(=O)[C@@H](N)CCCNC(=N)N)C(=O)N[C@@H](Cc2ccc(O)cc2)C(=O)N[C@@H](CCCNC(N)=O)C(=O)N[C@@H](CCCCN)C(=O)N[C@H](CCCNC(N)=O)C(=O)N2CCC[C@H]2C(=O)N[C@@H](Cc2ccc(O)cc2)C(=O)N[C@@H](CCCNC(=N)N)C(=O)N[C@@H](CCCNC(N)=O)C(=O)N1)C(N)=O [TC14012],EC50,[1],47.4 nM
Nn1cnc2scc(-c3ccc(Cc4ccccc4)cc3)c2c1=O [barbadin],inhibition of TC14012-induced ERK activation,[2],abolished TC14012-induced ERK activation; also recorded: completely suppressed
COc1ccccc1OCCNCC(O)COc1cccc2[nH]c3ccccc3c12 (centres unmarked) [carvedilol],adrenergic receptor blockade and β-arrestin signaling,[3],"not only blocks adrenergic receptors, but also activates cardioprotective signals, including ERK, through β-arrestin"
same,effectiveness in heart failure patients,[4],very effective for the treatment of heart failure patients
CC chemokine ligand 2: chemokine that induced accumulation of CC chemokine receptor 2-positive macrophages,accumulation of CCR2-positive macrophages,[5],induced the accumulation of CC chemokine receptor 2-positive macrophages
CXCL12: a natural ligand of CXCR4 and CXCR7,time of peak ERK activity after stimulation,"[6]; HEK293 cells with CXCR7 expression plasmid, n = 4",5 min
same,ERK activation (pERK/tERK),"[6]; HEK293 cells, rat CXCR7 expression plasmid (various amounts), n = 3",activated ERK in a CXCR7 expression plasmid-dose-dependent manner
same,protection of the heart from hypoxia,[7],protects the heart from hypoxia
angiotensin-(1-7): a metabolite of angiotensin II,G protein versus β-arrestin activation compared with angiotensin II,[8],"binds to type 1 angiotensin II receptor, but fails to activate G proteins, and selectively promotes β-arrestin activation compared with angiotensin II"
same,cardiac hypertrophy,[9],attenuates cardiac hypertrophy
chemerin: ligand of CCRL2,binding to CCRL2,[10],"it does not bind to chemokines, but to chemerin"
